Here are results for seven compounds from ChEMBL document CHEMBL3797158, “Discovery of potent, reversible MetAP2 inhibitors via fragment based drug discovery and structure based drug design-Part 1” (Bioorg Med Chem Lett, 2016).

One data set has as its target T1, Cytochrome P450 1A2 (Homo sapiens, UniProt P05177).
T1 sequence (P05177 whole entry): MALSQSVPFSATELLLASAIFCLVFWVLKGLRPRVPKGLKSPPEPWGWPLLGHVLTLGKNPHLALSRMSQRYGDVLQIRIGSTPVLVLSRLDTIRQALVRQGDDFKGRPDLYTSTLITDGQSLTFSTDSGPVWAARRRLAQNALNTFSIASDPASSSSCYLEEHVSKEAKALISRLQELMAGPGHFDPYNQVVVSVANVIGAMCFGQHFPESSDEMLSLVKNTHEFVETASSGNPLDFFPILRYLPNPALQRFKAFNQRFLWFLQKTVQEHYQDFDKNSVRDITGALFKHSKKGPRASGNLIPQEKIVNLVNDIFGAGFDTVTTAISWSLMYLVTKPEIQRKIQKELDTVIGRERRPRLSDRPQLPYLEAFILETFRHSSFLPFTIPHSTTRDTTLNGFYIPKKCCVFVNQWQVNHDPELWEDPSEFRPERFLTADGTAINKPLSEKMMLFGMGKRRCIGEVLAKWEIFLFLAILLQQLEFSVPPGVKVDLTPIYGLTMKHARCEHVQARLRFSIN
The data set can be described thus: Inhibition of human CYP1A2 expressed in Escherichia coli DH5-alpha. The class given is ADME.

Data set [1] addresses Methionine aminopeptidase 2 (Homo sapiens, UniProt P50579). The data set can be described thus: Inhibition of MetAP2 in HUVEC assessed as accumulation of N-Met-14-3-3gamma after 24 hrs by Western blot method. It is filed as cell-based. (In western blotting, separated proteins are transferred to a membrane and probed.)
Data set [2] relates to Mus musculus. The data set can be described thus: Oral bioavailability in diet-induced obese mouse at 5 mg/kg. The class given is ADME, organism-based. Conditions: in vivo.
A short description of data set [3]: Half life in diet-induced obese mouse at 5 mg/kg, po or 1 mg/kg, iv. The note with it: in vivo. It is filed as ADME, organism-based.
In data set [4] the test system is Mus musculus. The data set can be described thus: AUC in diet-induced obese mouse at 5 mg/kg, po. Conditions: in vivo. It is filed as ADME, organism-based.
Data set [5] deals with Mus musculus. The data set can be described thus: Antiobesity activity in po dosed diet-induced obese mouse assessed as body weight loss administered as qd for 28 days. The class given is functional, organism-based.
Data set [6] can be described thus: Volume of distribution in diet-induced obese mouse at 5 mg/kg, po or 1 mg/kg, iv. The class given is ADME, organism-based. The note with it: in vivo.

Sequence of Methionine aminopeptidase 2 (P50579 whole entry): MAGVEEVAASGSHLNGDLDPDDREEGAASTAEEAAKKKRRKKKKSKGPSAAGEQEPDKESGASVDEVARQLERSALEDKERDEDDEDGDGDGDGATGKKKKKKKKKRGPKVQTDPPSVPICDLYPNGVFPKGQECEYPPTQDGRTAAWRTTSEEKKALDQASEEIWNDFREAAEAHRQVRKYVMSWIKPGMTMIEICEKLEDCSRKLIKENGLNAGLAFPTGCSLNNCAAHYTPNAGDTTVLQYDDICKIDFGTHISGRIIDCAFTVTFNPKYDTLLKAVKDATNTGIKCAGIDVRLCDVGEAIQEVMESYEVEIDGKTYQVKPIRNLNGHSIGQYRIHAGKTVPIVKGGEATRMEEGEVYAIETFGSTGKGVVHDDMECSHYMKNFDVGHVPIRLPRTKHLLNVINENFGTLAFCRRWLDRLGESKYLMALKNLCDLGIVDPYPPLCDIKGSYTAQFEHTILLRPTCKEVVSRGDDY

By IC50 is commonly meant the concentration at which inhibition is half-maximal. `FC(F)(F)c1cc(-c2ccc3nccn3c2)c2cn[nH]c2c1`: at Cytochrome P450 1A2, the IC50 was 0.316 µM.
With `COc1cc(C(=O)NCCO)ccc1-c1cc(C(F)(F)F)cc2[nH]ncc12`, the IC50 at Cytochrome P450 1A2 is more than 50.1 µM.
The compound `Cc1cc(C(=O)NCCO)ncc1-c1cc(C(F)(F)F)cc2[nH]ncc12` showed a half-inhibitory concentration (IC50) against Cytochrome P450 1A2 of more than 50.1 µM.
By EC50 is commonly meant the midpoint of the concentration-response curve. On Cytochrome P450 1A2, `Cc1nc(N2CC[C@H](O)C2)ncc1-c1cc(C(F)(F)F)cc2[nH]ncc12` showed an IC50 of more than 50.1 µM. Besides, the EC50 in data set [1] amounted to 121 nM.
Compound `O=C(NCCO)c1ccc(-c2cc(C(F)(F)F)cc3[nH]ncc23)c(F)c1` gave an IC50 at Cytochrome P450 1A2 of more than 50.1 µM.
In general, half-life refers to how long it takes for the measured level to halve. The low end stands for rapid decline, the high end for slow decline. The AUC is concentration integrated over time. High values mean high exposure, low ones low exposure. In the case of `Cc1nc(N2CC[C@@H](O)C2)ncc1-c1cc(C(F)(F)F)cc2[nH]ncc12` [TP-004], the F with Mus musculus [2] is 58%. Besides, the half-life in data set [3] is 120 min. The IC50 against Cytochrome P450 1A2 is more than 50.1 µM. Besides, the exposure (AUC) in the data set with Mus musculus [4] was 15084 ng·h/mL. Moreover, the EC50 in data set [1] was determined as 15 nM. Further, the Activity entry in the data set on Mus musculus [5] is “Dose-dependent effect”. Moreover, the Vd in data set [6] stood at 1.25 L/kg.
`CNC(=O)c1ccc(-c2cc(C(F)(F)F)cc3[nH]ncc23)c(OC)c1`: on Cytochrome P450 1A2, the IC50 was 15.8 µM.
